These results are taken from patent publication US10329289B2, “6,7-dihydro-5H-pyrrolo[3,4-B]pyridin-5-one allosteric modulators of the M4 muscarinic acetylcholine receptor” (Merck Sharp & Dohme Corp., priority 2015, dated 2019).

The target in the assay is T1, human M4 muscarinic acetylcholine receptor (Homo sapiens, UniProt P08173).
T1 construct: expressed in transfected cells; host or cells: CHO-K1
T1 sequence (P08173 1-479): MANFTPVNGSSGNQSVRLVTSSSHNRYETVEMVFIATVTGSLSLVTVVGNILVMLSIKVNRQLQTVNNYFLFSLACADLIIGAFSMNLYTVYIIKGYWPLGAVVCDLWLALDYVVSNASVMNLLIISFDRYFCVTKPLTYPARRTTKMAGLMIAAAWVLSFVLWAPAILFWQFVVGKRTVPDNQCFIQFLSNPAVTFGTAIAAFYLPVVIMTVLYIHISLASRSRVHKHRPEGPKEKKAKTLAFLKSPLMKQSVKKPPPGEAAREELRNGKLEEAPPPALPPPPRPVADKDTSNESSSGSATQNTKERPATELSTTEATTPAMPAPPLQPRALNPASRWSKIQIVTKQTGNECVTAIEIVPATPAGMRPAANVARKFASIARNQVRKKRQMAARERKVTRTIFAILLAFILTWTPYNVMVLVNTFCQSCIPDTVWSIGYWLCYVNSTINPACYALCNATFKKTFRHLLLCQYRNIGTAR
Nature of the assay: human FLIPR-based M4 PAM assay (Ca2+ mobilization, CHO-K1 cells with human M4 receptor and Gαqi5). The conditions noted are these: acetylcholine at 20% of maximum response, read-out: M4 PAM IP. The assay is classed as cell-based. The protocol:
In a typical experiment the M4 muscarinic acetylcholine receptor modulating activity of the compounds of the present invention was determined in accordance with the following experimental method. CHO-K1 cells stably transfected with human M4 receptor and chimeric G-protein Gαqi5 (Coward P, et al., Analytical Biochemistry, 270:242-248 (1999)) are thawed from liquid N2 storage, resuspended in growth medium, plated in black, clear bottom 384 well plates, and incubated 16-20 hours at 37° C., 5% CO2. On the day of assay, growth medium is removed, the cells are washed 2 times with wash buffer, and cells are incubated in dye loading buffer at 37° C., 5% CO2 for ˜1 hour. […] Next, 10 uL of acetylcholine is added (final concentration calculated so as to achieve 20% of the maximum acetycholine response), and the fluorescence reading is continued for 3.5 min. In some cases, a third addition of acetylcholine (final concentration calculated to achieve 70% of the maximal acetylcholine response) is performed. The resulting dose response curves are fit to a 4 parameter logistic equation and the final result is determined as the inflection point (IP) of the curve
CHO-K1 cells stably transfected with human M4 receptor and chimeric G-protein Gαqi5 are thawed from liquid N2 storage, resuspended in growth medium, plated in black, clear bottom 384 well plates, and incubated 16-20 hours at 37° C., 5% CO2.
On the day of assay, growth medium is removed, the cells are washed 2 times with wash buffer, and cells are incubated in dye loading buffer at 37° C., 5% CO2 for ˜1 h. […] Next, 10 uL of acetylcholine is added (final concentration calculated so as to achieve 20% of the maximum acetycholine response), and the fluorescence reading is continued for 3.5 min. In some cases, a third addition of acetylcholine (final concentration calculated to achieve 70% of the maximal acetylcholine response) is performed.
For the compound `Cc1cc2c(nc1N1CC[C@@H](Oc3ccc(F)cc3)[C@@H](F)C1)CN(CCO)C2=O` [Example 262, 2-((3S,4R)-3-fluoro-4-(4-fluorophenoxy)piperidin-1-yl)-6-(2-hydroxyethyl)-3-methyl-6,7-dihydro-5H-pyrrolo[3,4-b]pyridin-5-one], the EC50 turned out to be 43 nM. `Cc1cc2c(nc1N1CCC(Oc3ccc4c(c3)CN(C(=O)OC(C)(C)C)CC4)CC1)CNC2=O` [Example 137, tert-butyl 7-((1-(3-methyl-5-oxo-6,7-dihydro-5H-pyrrolo[3,4-b]pyridin-2-yl)piperidin-4-yl)oxy)-3,4-dihydroisoquinoline-2(1H)-carboxylate]: the EC50 amounted to 515 nM. In the case of `Cc1cc2c(nc1N1CCC(Oc3ccc4c(c3)CO[C@@H]4C)CC1)CNC2=O` [Example 199A, (R)-3-methyl-2-(4-((1-methyl-1,3-dihydro-2-benzofuran-5-yl)oxy)piperidin-1-yl)-6,7-dihydro-5H-pyrrolo[3,4-b]pyridin-5-one], the EC50 is 60 nM. With `COc1ccc(OC2CCN(c3nc4c(cc3Cl)C(=O)NC4)CC2)cn1` [Example 327, 3-Chloro-2-(4-((6-methoxypyridin-3-yl)ox)piperidin-1-yl)-6,7-dihydro-5H-pyrrolo[3,4-b]pyridin-5-one], the EC50 turned out to be 205 nM.

For `CCc1cc2c(nc1N1CCC(OCC3(C)CC3)CC1)CN(CCO)C2=O` [Example 268, 3-ethyl-6-(2-hydroxyethyl)-2-(4-((1-methylcyclopropyl)methoxy)piperidin-1-yl)-6,7-dihydro-5H-pyrrolo[3,4-b]pyridin-5-one], the EC50 was 87 nM. For `Cc1cc2c(nc1N1CCC(Oc3ccc(CO)nc3)CC1)CNC2=O` [Example 155, 2-(4-((6-(hydroxymethyl)pyridin-3-yl)oxy)piperidin-1-yl)-3-methyl-6,7-dihydro-5H-pyrrolo[3,4-b]pyridin-5-one], the EC50 turned out to be 117 nM. For `Cc1cc2c(nc1N1CC[C@@H](Oc3ccc4c(c3)COC4)[C@@H](F)C1)CN(CCO)C2=O` [Example 255, 2-((3S,4R)-4-((1,3-dihydro-2-benzofuran-5-yl)oxy)-3-fluoropiperidin-1-yl)-6-(2-hydroxyethyl)-3-methyl-6,7-dihydro-5H-pyrrolo[3,4-b]pyridin-5-one], the EC50 came to 29 nM. With `CCN1Cc2nc(N3CCC(Oc4cccc(C#N)c4)CC3)c(C)cc2C1=O` [Example 242, 3-((1-(6-ethyl-3-methyl-5-oxo-6,7-dihydro-5H-pyrrolo[3,4-b]pyridin-2-yl)piperidin-4-yl)oxy)benzonitrile] the figure was 74 nM; with `COc1ccc(OC2CCN(c3nc4c(cc3C)C(=O)N(C)[C@]4(C)CO)CC2)cn1` (single isomer, unassigned) [Example 287B], 214 nM.

Consider `COc1ccc(OC2CCN(c3nc4c(cc3C)C(=O)NC4CO)CC2)cn1` (stereo not drawn) [Example 270, 7-(Hydroxymethyl)-2-(4-((6-methoxypyridin-3-yl)oxy)piperidin-1-yl)-3-methyl-6,7-dihydro-5H-pyrrolo[3,4-b]pyridin-5-one], for which the EC50 is 48 nM. With `Cc1cc2c(nc1N1CCC(OCC3(C)CC3C#N)CC1)CNC2=O` (single isomer, unassigned) [Example 191B] the figure was 30000 nM; with `Cc1c(N2CC[C@H](OCC3(C)CC3)[C@@H](F)C2)nc2c(c1C)C(=O)NC2` [Example 219A, 2-((3S,4S)-3-fluoro-4-((1-methylcyclopropyl)methoxy)piperidin-1-yl)-3,4-dimethyl-6,7-dihydro-5H-pyrrolo[3,4-b]pyridin-5-one], 46 nM. `Cc1cc2c(nc1N1CCC(Oc3ccc(OC4CCC4)nc3)CC1)CNC2=O` [Example 37, 2-(4-((6-cyclobutoxypyridin-3-yl)oxy)piperidin-1-yl)-3-methyl-6,7-dihydro-5H-pyrrolo[3,4-b]pyridin-5-one]: the EC50 is 172 nM. With `Cc1c(N2CCC(Oc3cnn(C)c3)CC2)nc2c(c1C)C(=O)NC2` [Example 331, 3,4-dimethyl-2-(4-((1-methyl-1H-pyrazol-4-yl)oxy)piperidin-1-yl)-6,7-dihydro-5H-pyrrolo[3,4-b]pyridin-5-one] the figure was 33 nM. Then `Cc1cc2c(nc1N1CCC(Oc3ccc4c(c3)CS(=O)(=O)C4)CC1)CNC2=O` [Example 208A, 2-(4-((2,2-dioxido-1,3-dihydrobenzo[c]thio-phen-5-yl)oxy)piperidin-1-yl)-3-methyl-6,7-dihydro-5H-pyrrolo[3,4-b]pyridin-5-one], with 123 nM. Take `Cc1c(N2CCC(Oc3ccc4c(c3)CCOC4)CC2)nc2c(c1C)C(=O)N(C)[C@@H]2CO` [Example 369, (S)-7-(hydroxymethyl)-2-(4-(isochroman-6-yloxy)piperidin-1-yl)-3,4,6-trimethyl-6,7-dihydro-5H-pyrrolo[3,4-b]pyridin-5-one]: the EC50 amounted to 57 nM. With `Cc1c(N2CCC(Oc3ccc4c(c3)CCOC4)CC2)nc2c(c1C)C(=O)N(CCO)C2` [Example 265F, 6-(2-hydroxyethyl)-2-(4-(isochroman-6-yloxy)piperidin-1-yl)-3,4-dimethyl-6,7-dihydro-5H-pyrrolo[3,4-b]pyridin-5-one], the EC50 turned out to be 46 nM. Then `Cc1cc2c(nc1N1CC[C@@H](Oc3cccc(C#N)c3)[C@H](F)C1)CNC2=O` [Example 21, 3-(((3R,4R)-3-fluoro-1-(3-methyl-5-oxo-6,7-dihydro-5H-pyrrolo[3,4-b]pyridin-2-yl)piperidin-4-yl)oxy)benzonitrile], with 50 nM; and `Cc1cc2c(nc1N1CCC(Oc3cnc4c(c3)COC4)CC1)CN(C)C2=O` [Example 49, 2-(4-((5,7-dihydrofuro[3,4-b]pyridin-3-yl)oxy)piperidin-1-yl)-3,6-dimethyl-6,7-dihydro-5H-pyrrolo[3,4-b]pyridin-5-one], with 94 nM; and `Cc1cc2c(nc1N1CCC(Oc3cnc4c(c3)CC[C@H]4O)CC1)CNC2=O` (single isomer, unassigned) [Example 324D], with 682 nM. Turning to `COc1ccc(OC2CCN(c3nc4c(cc3C)C(=O)N(CC3COC3)C4CC3COC3)CC2)cn1` (stereo not drawn) [Example 255A, 2-(4-((6-methoxypyridin-3-yl)oxy)piperidin-1-yl)-3-methyl-6,7-bis(oxetan-3-ylmethyl)-6,7-dihydro-5H-pyrrolo[3,4-b]pyridin-5-one], the EC50 worked out at 803 nM. Then `Cc1cc2c(nc1N1CCC(Oc3cccc(C#N)c3)CC1)CN(C(C)C)C2=O` [Example 246, 3-((1-(6-isopropyl-3-methyl-5-oxo-6,7-dihydro-5H-pyrrolo[3,4-b]pyridin-2-yl)piperidin-4-yl)oxy)benzonitrile], with 125 nM; and `Cc1cc2c(nc1N1CCC(Oc3ccc4[nH]nc(C)c4c3)CC1)CNC2=O` [Example 117, 3-methyl-2-(4-((3-methyl-1H-indazol-5-yl)oxy)piperidin-1-yl)-6,7-dihydro-5H-pyrrolo[3,4-b]pyridin-5-one], with 17 nM; and `COc1ccc(OC2CCN(c3nc4c(c(CF)c3C)C(=O)NC4)CC2)cn1` [Example 305, 4-(fluoromethyl)-2-(4-((6-methoxypyridin-3-yl)oxy)piperidin-1-yl)-3-methyl-6,7-dihydro-5H-pyrrolo[3,4-b]pyridin-5-one], with 241 nM.

For the compound `Cc1cc2c(nc1N1CCC(OC[C@]3(C)CC3(F)F)CC1)CNC2=O` [Example 8B, (S)-2-(4-((2,2-difluoro-1-methylcyclopropyl)methoxy)piperidin-1-yl)-3-methyl-6,7-dihydro-5H-pyrrolo[3,4-b]pyridin-5-one], the EC50 worked out at 501 nM. `COc1ccc(OC2CCN(c3nc4c(c(C(F)F)c3C)C(=O)NC4)CC2)cn1` [Example 307A, 4-(difluoromethyl)-2-(4-((6-methoxypyridin-3-yl)oxy)piperidin-1-yl)-3-methyl-6,7-dihydro-5H-pyrrolo[3,4-b]pyridin-5-one]: the EC50 worked out at 279 nM. With `Cc1cc2c(nc1N1CCC(OCC3CCCC3)CC1)CNC2=O` [Example 175, 2-(4-(cyclopentylmethoxy)piperidin-1-yl)-3-methyl-6,7-dihydro-5H-pyrrolo[3,4-b]pyridin-5-one], the EC50 is 139 nM.
